Data reported in ChEMBL document CHEMBL1201862, “PubChem BioAssay data set” (2004).
Active and inactive are the calls of the source. Cut-off read from the data, not from the text of the source: actives have a measured IC50 and inactives only a lower limit.

Target: Envelope glycoprotein gp160 (Human immunodeficiency virus 1, UniProt Q6QLK5)
Assay: cell-free HIV fusion peptide-binding blockers – biochemical, uHTS, fluorescence dequenching, […] (AID 1986)

Envelope glycoprotein gp160, sequence (Q6QLK5 whole entry, the tested form may be a part): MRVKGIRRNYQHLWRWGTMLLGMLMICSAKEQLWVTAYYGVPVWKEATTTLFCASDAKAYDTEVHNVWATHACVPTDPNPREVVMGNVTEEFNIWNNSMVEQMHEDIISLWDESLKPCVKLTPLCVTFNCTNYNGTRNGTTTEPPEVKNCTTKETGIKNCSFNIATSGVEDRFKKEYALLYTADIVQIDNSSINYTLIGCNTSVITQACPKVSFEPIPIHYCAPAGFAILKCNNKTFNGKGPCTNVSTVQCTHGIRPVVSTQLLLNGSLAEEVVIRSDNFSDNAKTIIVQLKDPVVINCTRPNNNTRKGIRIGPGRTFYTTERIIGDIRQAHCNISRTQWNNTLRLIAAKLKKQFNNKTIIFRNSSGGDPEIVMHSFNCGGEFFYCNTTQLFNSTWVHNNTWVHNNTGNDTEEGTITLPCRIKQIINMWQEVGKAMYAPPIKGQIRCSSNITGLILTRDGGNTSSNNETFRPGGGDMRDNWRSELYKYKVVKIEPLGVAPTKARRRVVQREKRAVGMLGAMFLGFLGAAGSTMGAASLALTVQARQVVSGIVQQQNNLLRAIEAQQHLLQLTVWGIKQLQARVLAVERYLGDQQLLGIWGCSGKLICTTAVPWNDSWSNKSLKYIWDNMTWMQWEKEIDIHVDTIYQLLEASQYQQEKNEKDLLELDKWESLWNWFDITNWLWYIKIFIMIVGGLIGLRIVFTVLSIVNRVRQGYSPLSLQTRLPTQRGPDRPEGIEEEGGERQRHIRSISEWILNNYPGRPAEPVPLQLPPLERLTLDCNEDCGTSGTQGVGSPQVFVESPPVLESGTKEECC

**Q.** For O=C(N/N=C/c1ccc(-c2ccc(S(=O)(=O)Nc3ncccn3)cc2)o1)c1cc2ccccc2cc1O, which IC50 is on record?
**A.** 5.36 µM (active)
